Literature values in US10835570B2, “Dietary supplement” (priority 2016, dated 2020).

Test system: receptors ERb and ERa
Details: oestrogen-like affinity, ERb versus ERa

O=c1c(-c2ccc(O)cc2)coc2cc(O)cc(O)c12 [genistein]
affinity greater for receptors ERb than for receptors ERa: 20 times
